Experiments:
[1] = In vivo toxicity evaluation (body weight) in wild type mice; details: i.v., 4 mg siCTR/kg (100 mg dendrimer/kg or 28 mg C12-200/kg)
Protocol: (§1) Wild-type mice or transgenic mice bearing liver tumors were randomly divided into different groups. Mice received tail vein i.v. injections of dendrimer NPs containing siCTR. Their body weight was monitored daily. For transgenic mice bearing liver tumors, multiple tail vain injections were performed to simulate repeated dosing.
To identify degradable dendrimers with the required balance of low toxicity and high potency required for liver cancer treatment, the degradable dendrimers were chose to evaluate their in vivo toxicity. In parallel, we analyzed C12-200 lipidoid LNPs wee chose as the best example of a non-hydrolyzable system previously shown to be potent in mice and non-human primates (Love et al., 2010). Lipidoids, as a class, are benchmark materials at the forefront of clinical research (Kanasty et al., 2013; Love et al., 2010; Sahay et al., 2013). Non-immunogenic control siRNA was used to best evaluate the toxicity of the individual dendrimers themselves. Dendrimer NPs were formulated at a weight ratio of 25:1 (dendrimer:siCTR), higher than necessary to better probe toxicity. C12-200 LNPs were prepared using identical formulation parameters as previously reported (Love et al., 2010). Size and zeta potential of each NP in PBS buffer was characterized. […] Each formulated NP was injected i.v. into wild type mice at a 4 mg siCTR/kg dose (100 mg dendrimer/kg or 28 mg C12-200/kg). […]

[2] = In vivo toxicity evaluation in transgenic mice bearing MYC-driven liver tumors; details: for survival after multiple injections of siCTR NPs: tumor-bearing mice, injected days 32, 36, 40, 44 at 3 mg siCTR/kg (75 mg dendrimer/kg)
Protocol: All experiments were approved by the Institutional Animal Care and Use Committees of The University of Texas Southwestern Medical Center and were consistent with local, state and federal regulations as applicable. Female C57BL/6 mice were purchased from Harlan Laboratories (Indianapolis, IN). Transgenic mice bearing MYC-driven liver tumors were generated by crossing the TRE-MYC strain with LAP-tTA strain. Mice bearing the LAP-tTA and TRE-MYC genotype were maintained on 1 mg/mL of dox, and MYC was induced by withdrawing dox. Power analysis was performed to anticipate required number of animals to achieve statistical significance.
as §1
A well-established Tet-On MYC inducible transgenic liver cancer model ws chosen (FIG. 13A) (Nguyen et al., 2014). […] At the age of 32 days (p32), these sick transgenic mice bearing aggressive liver tumors were injected with 5A2-SC8 or 6A3-SC12 NPs at 3 mg siCTR/kg dosage (75 mg dendrimer/kg or 21 mg C12-200/kg). […] In contrast to the result in WT mice, injection of C12-200 LNPs to mice bearing aggressive tumors lost >20% weight after one day, despite receiving ˜3 times less lipid than 5A2-SC8 injected mice (FIG. 12D). […] In addition to being less toxic than benchmark compounds, 5A2-SC8 NPs are more efficacious because these dendrimers reduce clinical concern for dose limiting toxicity and enable a wider therapeutic window.

Factor VII = assay: In vivo Factor VII silencing in mice; details: 1 mg siFVII/kg
Protocol: For in vivo delivery screening, female C57BL/6 mice received tail vein i.v. injections of PBS (negative control, n=3) or dendrimer NPs containing non-targeting siRNA (siCTR, negative control, n=3) or dendrimer NPs containing anti-Factor VII siRNA (siFVII, n=3) diluted in PBS (200 μL or less in total volume). After 48 h, body-weight gain/loss was measured and mice were anaesthetized by isofluorane inhalation for blood sample collection by retro-orbital eye bleed. Serum was isolated with serum separation tubes (Becton Dickinson) and Factor VII protein levels were analyzed by a chromogenic assay (Biophen FVII, Aniara Corporation). A standard curve was constructed using samples from PBS-injected mice and relative Factor VII expression was determined by comparing treated groups to an untreated PBS control.
Having identified dendrimers that can overcome intracellular barriers, next, the dendrimers that can overcome extracellular barriers to efficiently deliver siRNA in vivo were identified. […] Dendrimers were evaluated for their ability to silence Factor VII in hepatocytes because this blood clotting factor can be readily quantified from a small serum sample (Akinc et al., 2008; Semple et al., 2010). […] FVII activity was quantified 3 days post injection.

[3] = Biodistribution of Cy5.5-labeled siRNA in liver tumor-bearing mice; assay type: in vivo; details: Cy5.5-labeled siRNA 1 mg/kg i.v., 24 hours post-injection
Protocol: Female C57BL/6 mice or transgenic mice bearing liver tumors received tail vein i.v. injections with dendrimer NPs containing Cy5.5-siRNA at 1 mg/kg of siRNA in 200 μL. At 24 h post injection, mice were euthanized and organs were removed. The biodistribution was assessed by imaging whole organs with an IVIS Lumina System (Caliper Life Sciences) with the Cy5.5 filter setting.
For confocal imaging, the tissue was cryo-sectioned ([…]) and fixed using 4% paraformaldehyde at room temperature for 10 min. The slides were washed three times with PBS and blocked for 30 min in PBS with 1% albumin. Sections were then incubated for 30 min with Alexa Fluor 488 Phalloidin (1:200 dilution, Life Technologies) in PBS with 1% albumin. Slides were washed three times with 0.1% Tween 20 and mounted using ProLong Gold Antifade (Life Technologies). Sections were imaged using an LSM 700 point scanning confocal microscope (Zeiss) equipped with a 25× objective.
Since 5A2-SC8 balances low in vivo toxicity and effectiveness for silencing the hepatocellular target FVII, first, whether 5A2-SC8 NPs could deliver siRNA into tumor cells was examined. At the age of 41 days (p41), the livers of these transgenic mice are full of tumors (FIG. 14A). On p40, mice were injected intravenously with 5A2-SC8 NPs with Cy5.5-labeled siRNA at a dosage of 1 mg siRNA/kg. […]

[4] = tumor-bearing mice p32, 3 mg siCTR/kg (75 mg dendrimer/kg)

Structure (SMILES)	body weight change [1]	body weight recovery [2, 4]	body weight loss ([2]; tumor-bearing mice p32, 3 mg siCTR/kg (75 mg dendrimer/kg), by the third day)	survival after multiple injections of siCTR NPs [2]	in vivo FVII knockdown (Factor VII)	tolerance in tumor-bearing mice ([2]; LAP-tTA/TRE-MYC transgenic, mouse, in vivo)	body weight loss ([2]; tumor-bearing mice p32, 3 mg siCTR/kg (75 mg dendrimer/kg or 21 mg C12-200/kg), after one day)	siRNA accumulation in organs (fluorescence imaging) [3]
CCCCCCCCCCCCSCC(C)C(=O)OCCOC(=O)CCN(CCC(=O)OCCOC(=O)C(C)CSCCCCCCCCCCCC)CCN(CCN(CCC(=O)OCCOC(=O)C(C)CSCCCCCCCCCCCC)CCC(=O)OCCOC(=O)C(C)CSCCCCCCCCCCCC)CCN(CCC(=O)OCCOC(=O)C(C)CSCCCCCCCCCCCC)CCC(=O)OCCOC(=O)C(C)CSCCCCCCCCCCCC (centres unmarked) [6A3-SC12]	quicker recovery and gained weight normally after the first day	could not recover	10%	died seven days earlier compared to mice that received no treatment				
CCCCCCCCSCC(C)C(=O)OCCOC(=O)CCN(CCNCCN(CCC(=O)OCCOC(=O)C(C)CSCCCCCCCC)CCC(=O)OCCOC(=O)C(C)CSCCCCCCCC)CCNCCN(CCC(=O)OCCOC(=O)C(C)CSCCCCCCCC)CCC(=O)OCCOC(=O)C(C)CSCCCCCCCC (centres unmarked) [5A2-SC8]	quicker recovery and gained weight normally after the first day	quickly returned to their starting weight on the second day		well tolerated and not affect survival	> 95%	up to 75 mg/kg	about 5%	siRNA accumulation in the cancerous liver, with only minor accumulation in the spleen and kidneys

— US11999683B2, “Lipocationic dendrimers and uses thereof” (priority 2015, dated 2024)
